Measured values as given in patent US6984659B2, “2-pyrrolidinone derivatives substituted at position 4 for reducing the extracellular glutamate level” (priority 1997, dated 2006).
pEC50: −log10 of the molar value.

How the values were obtained:
[1] = system: ischemia-induced [^3H]-Glu release; assay: in vitro ischemia model: ischemia-induced [^3H]-Glu release from [^3H]-Gln-loaded hippocampal slices; format: cell-based, rat
Method: Rat hippocampus slices 350 μm thick were incubated in 3 ml of medium at 37° C. for 60 minutes. The medium contained 2 μM [^3H]-Gln to label the endogenous Gln pool. The slices then synthesized Glu. The slices were washed and then exposed to superfusion with a buffer for 50 minutes. At 5-minute intervals, [^3H]-Glu was extracted by anion exchange chromatography from a total of 15 superfusion samples and was measured by liquid scintillation counting. The fractional rates of [^3H]-Glu release were calculated from the [^3H]-Glu extracted from the superfusion samples and from the tissue slices after the superfusion.
The model of endogenously produced [^3H]-Glu was likewise used to generate ischemic conditions in vitro. To make a slice “quasi ischemic”, oxygen and glucose were replaced by nitrogen and sucrose during the superfusion. Sucrose was used in place of […] glucose in order to maintain the osmolarity of the superfusion fluid. It is known that sucrose cannot be cleaved in vitro to glucose and fructose. Unlike the tests in which the [^3H]-Glu release was induced electrically, and in order to simulate an ischemia as well as possible, the [^3H]-Glu release was carried out during the incubation and superfusion at 37° C.
Slices of 350 μm thickness were incubated at 37° C. for 60 min in 3 ml medium containing 2 μM [^3H]-Gln in order to label endogenous Gln pools. These slices subsequently were synthesizing Glu. The slices were washed and then superfused for 50 min with buffer. [^3H]-Glu was extracted from 15 5-min-superfusion samples and from the slices by anion-exchange chromatography and measured by liquid scintillation counting. Fractional rates of [^3H]-Glu release were calculated from extracted [^3H]-Glu in the superfusion samples and in the tissue slices obtained after superfusion.
To reproduce in vitro ischemic conditions the model of endogenously formed [^3H]-Glu was also used. To make a slice “quasi-ischemic”, oxygen was replaced by nitrogen and glucose was replaced by sucrose during superfusion. Sucrose was used instead of glucose in order to maintain the osmolarity of the superfusion fluid without being cleaved into glucose and fructose in vitro. At variance to the experiments on electrically evoked [^3H]-Glu release and in order to mimic ischemia as close as possible the experiments on ischemia-induced [^3H]-Glu release were performed at 37° C. throughout incubation and superfusion.
To assess the potency of glibenclamide concentration-inhibition curves of GBP-L on ischemia-induced [^3H]-Glu efflux were obtained in the absence and presence of 0.1 μM glibenclamide (see Jehle et al. 2000).

[2] = system: potassium-evoked release of [^3H]-noradrenaline; assay: potassium-evoked release of [^3H]-noradrenaline from rat neocortex slices (superfusion); format: cell-based; details: rat neocortical slices
From the text: The effects of GBP and GBP-L were compared by a very similar approach using rat and human neocortical slices.
Note that the deviations indicate confidence intervals (CI95), not standard errors.

[3] = system: electrically evoked release of [^3H]-NA; assay: electrically evoked release of [^3H]-NA from rat brain slices; format: cell-based; details: quasi-physiological release
From the text: Note that the deviations indicate confidence intervals (CI95), not standard errors. In this model, GBP and its lactam seem equipotent. GBP and GBP-L are ineffective on the quasi-physiological, electrically evoked release of [^3H]-NA from both rat and human brain slices (not shown).

[4] = system: mitochondrial KATP channels; assay: mitochondrial KATP channels, depression of the mitochondrial membrane potential; format: biochemical
Method: The mode of action of GBP-L and GBP was tested with regard to mitochondrial KATP channels (Szewczyk and Marban 1999). […] Effects of GBP-L on the mitochondrial membrane potential were already seen at 5 μM. […] Thus, the neuroprotective effect of GBP-L seems to be mediated predominantly through mitochondrial KATP channels.

[5] = system: Mice transgenic for exon 1 of the human HD gene (line R 6/2); assay: mouse model of Huntington's disease, walking on a balance beam; format: in vivo
From the text: Mice transgenic for exon 1 of the human HD gene (line R 6/2), carrying CAGn=115-156 expansions, develop pronounced neuronal intranuclear inclusions, containing the proteins huntington and ubiquitin prior to the characteristic neurological phenotype with bradykinesia and seizures corresponding to the juvenile type of HD (Davies et al. 1997). The life time of these mice is up to 17 weeks. It was investigated whether gabapentin (GBP) and its derivative gabapentin-lactam (GBP-L, Jehle et al. 2000), may exert neuroprotective effects by using a battery of behavioral tests selected to measure motor aspects of fore-and hindlimb coordination and balance. In a first series of experiments mice were treated with GBP-L (100 mg/kg*day, 8 mice) and vehicle only (B mice) from the 6th week of their life until death using Alzet pumps implanted subcutaneously and delivering the test compounds systemically and continuously for up to four weeks. Empty Alzet pumps were repeatedly replaced. Animals were tested twice weekly by walking on a balance beam (width: 5 and 14 mm, Carter et al. 1999) up to week 15.5. A second series of experiments involved mice again treated with GBP-L (100 mg/kg*clay, 7 mice) and mice treated with GBP (100 mg/kg*day, 8 mice) from the 6th week of their life until death with week 17 being the maximum endpoint. In addition, immunohistochemical studies, using a monoclonal mouse antibody raised against ubiquitin, were done to analyse areas of ubiquitinated nuclear inclusions in three brain regions (hippocampus, neocortex and striatum) in a blinded fashion in order to compare mice treated with GBP-L or GBP.
This effect (E), as measured by the time necessary to pass the balance beam, was evaluated in each single mouse according to the function E=be^a time, yielding individual graphs with parameter estimates for a and b. The area under the curve, representing the motor ability of an individual mouse, was weighted by the life of this mouse. For instance, the area under the curve of a mouse which died at week 12.5 was divided by the ratio 12.5/15.5 in order to allow for possibly different life times of the mice.
Note that the observation period of the second series of experiments was 17 instead of 15.5 weeks only in the first set. Accordingly, the weighting by the life time now used the divisor 17 Instead of 15.5.

[6] = second series, 100 mg/kg*day, observation period 17 weeks
[7] = O2 replaced by N2, glucose by sucrose, 37° C., 3 μM PDC

SMILES	diminution of ischemia-induced [^3H]-Glu efflux [1] [%]	K^+-evoked [^3H]-NA release (in words) [2]	electrically evoked release of [^3H]-NA (in words) [3]	activity at mitochondrial KATP channels (in words) [4]	mean weighted area representing the motor ability on the 5 mm beam [5, 6]	mean weighted area representing the motor ability on the 14 mm beam [5, 6]	ischemia-induced [^3H]-Glu output (in words) [1, 7]	reduction of ischemia-induced [^3H]-Glu release (area from t=15 min) [1, 7] [%]	concentration at which effects on the mitochondrial membrane potential were already seen [4] [µM]	pEC50 ([4]; read-out: half-maximal depression of the mitochondrial membrane potential)	motor abilities compared to vehicle animals (in words) ([5]; first series, 100 mg/kg*day)	mean weighted area representing the motor ability on the 5 mm beam ([5]; first series, 100 mg/kg*day s.c. Alzet pumps from 6th week, up to week 15.5, vehicle 44.60)	mean weighted area representing the motor ability on the 14 mm beam ([5]; first series, 100 mg/kg*day, up to week 15.5, vehicle 31.54)
NCC1(CC(=O)O)CCCCC1 [GBP, gabapentin, reference compound]	35.5	inhibited similarly	ineffective	hardly effective	77.33	65.71	–	–	–	–	–	–	–
O=C1CC2(CCCCC2)CN1 [GBP-L, 8-azaspiro[5,4]decan-9-one]	–	inhibited similarly	ineffective	potent activator	43.75	30.46	reduces the neurotoxic [^3H]-Glu output significantly	42.5	5	4.07	markedly and significantly improved	26.64	17.16
